Laboratory results as given in patent US20090176701A1, “Anti-microbial agents that interact with the complement system” (priority 2005, published 2009).

Columns and labels:
Type in all cases: cell-based
[1] = test system: E. coli O7:K1(L):NM (ATCC 23503); assay: Bacterial killing assay with normal human serum, additional strain; conditions: Table 3, peptide 3 μM, NHS control 5.3
Procedure: Peptide #3 was tested for activity at 3 μM on additional strains of E. coli using normal human serum as a control.

E. coli O18:K1:H7 [2] = assay: Bacterial killing assay in serum or plasma (complement dependence)
E. coli O18:K1:H7 [3] = assay: Bacterial killing assay in 10% blood; parameters: CFU / CFU (Range) / CFU 1 hour / CFU 3 hours / CFU 5 hours / CFU 3 hour: scale not given here; conditions: for CFU 1 hour / CFU 3 hours: Table 5, 3000 CFU; for CFU 1 hour: blood 3.4; for CFU 3 hours: blood 4.2; for CFU 5 hours / CFU 3 hour: Table 6; for CFU (Range): Table 9
Procedure: TFPI was incubated with α-thrombin, plasmin, elastase and cathepsin G in 10% blood and tested for bacterial killing activity against E. coli O18:K1:H7 as follows. Recombinant TFPI at 5 μM (unless indicated otherwise), was treated with plasmin (100 nM, lane 3) and α-thrombin (100 nM, lane 7; 1 μM, lane 8) (A), elastase (100 nM, lanes 3 and 4) (B), and cathepsin G (100 nM, lane 4; 1 μM, lanes 5, 6 and 7) (C) in a total volume of 180 μl. The reaction contained TFPI diluted in RPMI 1640 without phenol red, 25 mM Hepes, pH 7.5 (RPMI), 3000 CFU E. coli O18:K1:H7 in 40 μl PBS, and diluted enzyme in 20 μl RPMI. The volume was adjusted with RPMI. The samples were pre-incubated for 15-30 minutes before the addition of anti-coagulant-free fresh blood to a final volume of 200 μl. Controls were 10% blood in RPMI, TFPI at 1, 2 and 5 μM, and the enzymes alone at the respective concentrations. The samples were incubated for 4 hours at 37° C. with 5% CO2 in a humidified incubator and serial dilutions plated on Tryptase soy agar plates. The number of bacterial colonies was determined after overnight incubation at 37° C. All experimental conditions are run in duplicate. The data represent the average colony number.
The 18 μl aliquots were diluted to 10 μM TFPI with 445 μl RPMI 1640 without phenolred, 25 mM Hepes, pH 7.5 (RPMI) and assayed at a final concentration of 5 μM in 200 μl reactions containing 3000 CFU E. coli in 40 μl PBS, 10% non-coagulated blood, and adjusted to the final volume with RPMI. Negative controls were 10% blood in RPMI, TFPI at 5 μM and cathepsin G at 400 nM. Anti-coagulant free blood was freshly drawn and added to the reaction as the last component. The samples were manipulated as described above.
Peptides were designed to test for bacterial killing activity localized in the C-terminal domain of TFPI. Activity was measured against Gram negative (E coli O18:K1:H7. ATCC 700973) bacteria in the presence of 10% blood as described above. Controls were RPMI with 10% blood and 100 nM Tifacogin. The biological activity was determined from the reduction of bacterial colonies, as above.
The three peptides #1, #2, & #3 were diluted in H2O to 10 fold their final assay concentration and incubated with bacteria for 4 hours, at the final concentrations of 3 μM, 300 nM 100 nM and 10 nM. E. coli was used at 3000 CFU/200 μl. Surviving colony numbers were determined as described in Example 1. […] Full-length TFPI has no activity against Gram negative bacteria in these assays at the concentrations tested.
Time-dependency: Peptides were incubated with 3000 CFU E. coli O18:K1:H7 at the indicated final concentrations in the presence of 10% blood in three parallel 200 μl reactions as described above. RPMI with 10% blood was used as negative control. After incubation for 1, 3, or 5 hours samples were assayed for the effect on bacterial survival by plating serial dilutions onto agar plates. […] The effect of peptides on bacterial survival increases over the time-span studied.
In these experiments, variable concentrations of E. coli O18:K1:H7 (3×10^3, 3×10^4 or 3×10^5 CFU/200 μl) were challenged with either 3 μM or 100 nM peptide #3 in RPMI/10% blood, and incubated for 3 or 5 hours before dilution and plating. Briefly, the bacteria were diluted to the indicated CFU in 40 μl PBS, the reactions assembled at a final volume of 200 μl as above, and incubated at 37° C. Serial dilutions of the reactions were plated and the colony number determined after overnight incubation. […] At 5 hours no effect on the high CFU culture was discernable, indicating a titration of the killing activity and the high CFU culture exceeding the capacity.

E. coli O18:K1:H7 [4] = assay: Bacterial killing assay without blood (growth medium); conditions: Table 4; no blood, peptide 3 μM; growth medium 6.2
Procedure: Peptides #1, #3 and #4 were tested for their activity without blood on E. coli O18:K1:H7. The peptides were assayed at 3 μM. The same blood and TFPI controls were included as in Experiment I.

GFIQRISKGGLIKTKRKRKKQRVKIAY (homo sapiens) [Peptide #3, TFPI aas 242-268]
CFU [1]: 2.9 | bacterial killing activity in CVF-treated serum (E. coli O18:K1:H7 [2]; FIG. 8C, 1 U/ml CVF): still preserved | bacterial killing activity in CVF-treated serum (E. coli O18:K1:H7 [2]; FIG. 8C, serum treated with 10 U/ml of CVF): lost | bacterial killing activity in serum (E. coli O18:K1:H7 [2]; FIG. 8C, untreated serum or serum incubated 30 minutes at room temperature without CVF): active | bacterial killing activity in serum (rank) (E. coli O18:K1:H7 [2]; FIG. 8D, peptides serially diluted to 300 nM, and 30 nM in serum): strongest effect | bacterial killing activity in C4-deficient serum (E. coli O18:K1:H7 [2]; FIG. 9, C4-deficient guinea pig serum): completely devoid of bacterial killing activity | bacterial killing activity in complement-depleted sera (E. coli O18:K1:H7 [2]; FIG. 9, serum depleted for C1q, C3, C6, C2, C9, or deficient for C4): loss | bacterial killing activity after add-back of complement factor (E. coli O18:K1:H7 [2]; FIGS. 9 C and D, purified C1 complex (2.34 μg) or factor C4 (6 μg) added back to the respective depleted/deficient serum): restored | CFU (E. coli O18:K1:H7 [2]; Table 7, serum at 40 μl, digested rTFPI 5 μM, peptide #3 in parallel, control 4.2): 1.2 | CFU (E. coli O18:K1:H7 [2]; Table 8, Serum + 5 mM MgC12, 10 mM EDTA, control 4.4): 4.2 | bacterial killing activity in chelated serum (E. coli O18:K1:H7 [2]; serum containing 10 mM EGTA and 5 mM MgCl2): no bacterial killing activity | activity against O18ac:K1:H7 E. coli strain in blood (E. coli O18:K1:H7 [3]; 10% blood, 4 hours, concentrations tested 10 nM to 3 μM, peptide #5 compared to peptide #3): active | CFU (E. coli O18:K1:H7 [3]; Table 1, peptide 300 nM, 10% blood, 3000 CFU/200 μl, 4 hours, blood control 5.1): 2.2 | CFU (E. coli O18:K1:H7 [3]; Table 2, peptide 10 nM, 10% blood, blood control 3.5): 2.6 | CFU (E. coli O18:K1:H7 [3]; Table 2, peptide 100 nM, 10% blood, blood control 3.5): 1.2 | CFU 1 hour (E. coli O18:K1:H7 [3]; 300 nM, 10% blood): 3.3 | CFU 3 hours (E. coli O18:K1:H7 [3]; 300 nM, 10% blood): 1.2 | CFU 1 hour (E. coli O18:K1:H7 [3]; 3 μM, 10% blood): 3.2 | CFU 3 hours (E. coli O18:K1:H7 [3]; 3 μM, 10% blood): 0.2 | CFU 5 hours (E. coli O18:K1:H7 [3]; 3000 bacteria, 100 nM, blood alone 3.4): 1.2 | CFU 3 hour (E. coli O18:K1:H7 [3]; 3000 bacteria, 100 nM, blood alone 3.9): 2.3 | CFU 3 hour (E. coli O18:K1:H7 [3]; 30,000 bacteria, 100 nM, blood alone 5.1): 1.5 | CFU 5 hours (E. coli O18:K1:H7 [3]; 30,000 bacteria, 100 nM, blood alone 6.3): 4.1 | CFU 3 hour (E. coli O18:K1:H7 [3]; 30,000 bacteria, 3 μM, blood alone 5.1): 1.1 | CFU 5 hours (E. coli O18:K1:H7 [3]; 30,000 bacteria, 3 μM, blood alone 6.3): 3.6 | CFU 3 hour (E. coli O18:K1:H7 [3]; 300,000 bacteria, 100 nM, blood alone 7.7): 7.5 | CFU 5 hours (E. coli O18:K1:H7 [3]; 300,000 bacteria, 100 nM, blood alone 8.4): 9.1 | CFU 3 hour (E. coli O18:K1:H7 [3]; 300,000 bacteria, 3 μM, blood alone 7.7): 5.8 | CFU 5 hours (E. coli O18:K1:H7 [3]; 300,000 bacteria, 3 μM, blood alone 8.4): 9.1 | CFU (E. coli O18:K1:H7 [3]; Table 7, blood at 20 μl, digested rTFPI 5 μM, peptide #3 in parallel, control 4.1): 1.5 | CFU (Range) (E. coli O18:K1:H7 [3]; peptide 3 μm, Heparin, 3 U/mL): 5.5 | CFU (Range) (E. coli O18:K1:H7 [3]; peptide 3 μm, LMW heparin, 0.3 U/mL): 4.2 (4.1-4.2) | CFU (Range) (E. coli O18:K1:H7 [3]; peptide 3 μm, LMW heparin, 3 U/mL): 5.2 (5.2-5.3) | bacterial killing activity with un-fractionated heparin (E. coli O18:K1:H7 [3]; peptide 3 μm, un-fractionated heparin at 0.3 U/ml, data not shown): partial loss of bacterial killing activity | CFU (Range) (E. coli O18:K1:H7 [4]): 6.2 (6.1-6.2)
